Source: ChEMBL document CHEMBL1152108, “Dual metalloprotease inhibitors. II. Effect of substitution and stereochemistry on benzazepinone based mercaptoacetyls” (Bioorg Med Chem Lett, 1994)

Assays:
[1] = biological target: Angiotensin-converting enzyme (Homo sapiens, UniProt P12821); assay: Inhibition of Angiotensin I converting enzyme; details: read-out: I50
Neprilysin = Neprilysin (Homo sapiens, UniProt P08473); assay: Inhibition of Neutral Endopeptidase (NEP); details: read-out: I50
Rattus norvegicus [2] = assay: Compound was tested in vivo for inhibition of Angiotensin I(AI) induced pressor response in normotensive rat after iv administration; type: functional
Rattus norvegicus [3] = assay: Maximal percentage inhibition of Angiotensin I(AI) induced pressor response in normotensive rat at 0.15 (umol/kg) (iv); type: functional

Neprilysin, sequence (P08473 whole entry): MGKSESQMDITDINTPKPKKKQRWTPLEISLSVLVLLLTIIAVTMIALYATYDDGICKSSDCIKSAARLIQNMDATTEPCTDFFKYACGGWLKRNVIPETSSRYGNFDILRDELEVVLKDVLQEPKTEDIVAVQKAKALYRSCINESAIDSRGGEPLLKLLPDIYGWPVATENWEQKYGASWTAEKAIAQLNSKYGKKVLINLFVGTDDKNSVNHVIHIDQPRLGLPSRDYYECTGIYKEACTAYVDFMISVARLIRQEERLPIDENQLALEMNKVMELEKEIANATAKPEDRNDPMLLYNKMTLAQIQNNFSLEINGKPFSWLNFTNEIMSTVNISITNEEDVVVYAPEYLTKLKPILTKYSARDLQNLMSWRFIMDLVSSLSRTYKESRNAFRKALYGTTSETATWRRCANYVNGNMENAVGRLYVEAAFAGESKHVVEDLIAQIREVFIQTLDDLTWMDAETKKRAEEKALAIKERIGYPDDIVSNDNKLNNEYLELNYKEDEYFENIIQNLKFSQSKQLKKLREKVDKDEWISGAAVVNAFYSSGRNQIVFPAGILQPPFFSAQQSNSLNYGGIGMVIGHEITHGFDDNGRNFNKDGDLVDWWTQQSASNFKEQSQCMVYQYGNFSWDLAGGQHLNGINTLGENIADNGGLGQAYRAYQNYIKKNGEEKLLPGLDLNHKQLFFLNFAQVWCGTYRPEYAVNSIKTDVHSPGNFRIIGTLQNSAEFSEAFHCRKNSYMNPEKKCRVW
Angiotensin-converting enzyme, sequence (P12821 whole entry): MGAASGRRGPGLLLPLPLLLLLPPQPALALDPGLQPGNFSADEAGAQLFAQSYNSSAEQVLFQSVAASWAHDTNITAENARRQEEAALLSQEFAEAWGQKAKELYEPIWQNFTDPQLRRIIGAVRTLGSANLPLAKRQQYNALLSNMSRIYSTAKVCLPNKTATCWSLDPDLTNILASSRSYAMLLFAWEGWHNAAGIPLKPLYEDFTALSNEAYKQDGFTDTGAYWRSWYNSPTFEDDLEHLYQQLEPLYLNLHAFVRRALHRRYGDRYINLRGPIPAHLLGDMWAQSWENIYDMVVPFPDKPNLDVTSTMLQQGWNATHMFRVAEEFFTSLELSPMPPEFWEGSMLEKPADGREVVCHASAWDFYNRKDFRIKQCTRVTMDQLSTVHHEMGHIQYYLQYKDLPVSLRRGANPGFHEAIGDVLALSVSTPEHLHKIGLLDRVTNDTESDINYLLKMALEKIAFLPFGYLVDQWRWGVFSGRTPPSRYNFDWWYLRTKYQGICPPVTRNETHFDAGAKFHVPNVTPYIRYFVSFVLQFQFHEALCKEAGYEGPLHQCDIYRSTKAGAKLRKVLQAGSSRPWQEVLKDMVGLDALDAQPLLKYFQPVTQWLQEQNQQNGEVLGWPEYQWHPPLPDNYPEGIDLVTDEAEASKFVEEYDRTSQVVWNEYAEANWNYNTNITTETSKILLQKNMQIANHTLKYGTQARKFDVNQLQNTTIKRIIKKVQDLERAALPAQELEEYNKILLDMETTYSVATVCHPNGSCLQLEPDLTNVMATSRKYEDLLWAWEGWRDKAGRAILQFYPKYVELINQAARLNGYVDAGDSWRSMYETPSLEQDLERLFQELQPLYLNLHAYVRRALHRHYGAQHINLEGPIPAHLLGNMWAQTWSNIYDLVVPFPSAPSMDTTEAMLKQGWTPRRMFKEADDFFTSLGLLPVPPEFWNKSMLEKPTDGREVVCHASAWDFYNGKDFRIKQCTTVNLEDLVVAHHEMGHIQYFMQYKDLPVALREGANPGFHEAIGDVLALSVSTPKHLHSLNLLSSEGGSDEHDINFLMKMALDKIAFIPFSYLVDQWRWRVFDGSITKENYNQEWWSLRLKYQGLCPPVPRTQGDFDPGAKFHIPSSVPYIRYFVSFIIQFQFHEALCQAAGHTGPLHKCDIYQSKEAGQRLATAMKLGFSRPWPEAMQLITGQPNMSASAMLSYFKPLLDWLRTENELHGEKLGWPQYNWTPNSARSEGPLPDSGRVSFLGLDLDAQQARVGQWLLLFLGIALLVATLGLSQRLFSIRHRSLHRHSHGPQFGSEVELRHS

SMILES | IC50 [1] | IC50 (Neprilysin) | ED50 (Rattus norvegicus [2]) | Inhibition (Rattus norvegicus [3])
O=C(O)CN1CCCC[C@H](NC(=O)[C@@H](S)Cc2ccccc2)C1=O | 22 nM | 82 nM | 0.83 µmol/kg | 
O=C(O)CN1C(=O)[C@@H](NC(=O)[C@@H](S)CC2CCCCC2)CCc2ccccc21 | 22 nM | 4260 nM |  | 
O=C(O)CN1C(=O)[C@@H](NC(=O)[C@@H](S)Cc2ccccc2)CCc2ccccc21 |  | 6 nM | 0.02 µmol/kg | 
CCCC[C@H](S)C(=O)N[C@H]1CCc2ccccc2N(CC(=O)O)C1=O | 5.4 nM | 36 nM | 0.06 µmol/kg | 
C[C@H](NC(=O)[C@@H](S)Cc1ccccc1)C(=O)N(CC(=O)O)c1ccccc1 | 14 nM | 137 nM | 0.15 µmol/kg | 42%
CC(C)C[C@H](S)C(=O)N[C@H]1CCc2ccccc2N(CC(=O)O)C1=O | 6.3 nM | 7 nM | 0.23 µmol/kg | 
O=C(O)CN1C(=O)[C@@H](NC(=O)[C@H](S)Cc2ccccc2)CCc2ccccc21 | 284 nM | 14 nM |  | 
O=C(O)CN1C(=O)[C@H](NC(=O)[C@@H](S)Cc2ccccc2)CCc2ccccc21 | 306 nM | 560 nM |  | 
C[C@H](S)C(=O)N[C@H]1CCc2ccccc2N(CC(=O)O)C1=O | 24 nM | 1850 nM |  | 
O=C(O)CN1C(=O)C(NC(=O)[C@@H](S)Cc2ccccc2)CCCc2ccccc21 (stereo partly specified) | 25 nM | 1120 nM |  | 
O=C(O)CN1Cc2ccccc2C[C@H](NC(=O)[C@@H](S)Cc2ccccc2)C1=O | 33 nM | 175 nM |  | 
CC(S)(Cc1ccccc1)C(=O)N[C@H]1CCc2ccccc2N(CC(=O)O)C1=O (stereo in doubt; form 1) | 183 nM | 865 nM |  | 
CC(S)(Cc1ccccc1)C(=O)N[C@H]1CCc2ccccc2N(CC(=O)O)C1=O (stereo in doubt; form 2) | 63 nM | 2000 nM |  | 
